# Source: patent US8809344B2, “Compounds, compositions, and methods for control of hepatitis C viral infections” (priority 2008, dated 2014)
# Experiments:
# [1] = test system: Huh7.5 cells; experiment: ATP viability assay (CellTiter-Glo) in replicon-harboring Huh7.5 cells; assay type: cell-based, human; details: 24 hours post-treatment; Huh7.5 cells harboring transient genotype 1b replicon
# Experimental: Inhibition of HCV replication by AP0089652, AP0080978 (enantiomer 2 from Example 1) and AP0080977 (enantiomer 1 from Example 1) were assayed by exposing cells harboring an HCV genotype 1b replicons to the compounds and quantitating HCV replicon levels following exposure. The replicon used in these studies was a transient genotype 1b subgenomic replicon generated from the Con1 strain. In this replicon, the HCV internal ribosome entry site (IRES) within the 5′ non-translated region (NTR) drives expression of the first 32 amino acids of the core protein fused to humanized Renilla luciferase (hRluc). The encephalomycarditis IRES lies 3′ to the hRluc open reading frame (ORF) and drives expression of non-structural (NS) proteins NS3 through NS5B. Huh7.5 cells (U.S. patent application Ser. No. 10/534,571) harboring this replicon were seeded into 96-well plates at 20,000 cells per well in medium containing 10% FBS, 1× penicillin/streptomycin, 1× non-essential amino acids, and 100 ng/ml Fungizone. After a four hour attachment period, compound was added to wells using a five point 3-fold serial dilution series with four replicate treatments per dose. […] Compound-mediated HCV inhibition and toxicity were assayed 24 hours post-treatment using Renilla luciferase readout and an ATP viability assay (CellTiter-Glo, Promega, Madison, Wis., USA), respectively. […]
# [2] = test system: chimeric APV23 (FL-J6/JFH) genotype 2a HCV; experiment: HCV APV23 viral infectivity assay in Huh7.5 cells, 3′NTR RNA by realtime quantitative PCR; assay type: cell-based, hepatitis C virus; details: FIG. 6; genotype 2a NS4B coding region
# Experimental: (§1) Inhibition of HCV infectivity by AP0080978 and its analogs (AP0080977, non-active enantiomer; AP0089652, racemate; and AP0080935, an aromatic, non-optically active analog of AP0080978) was assayed by exposing cells with infectious chimeric HCV virions in the presence of the compounds. This was accomplished by use of an HCV cell culture system essentially as described in Pietschmann, T. et al. (2006) 103(19): 7408-13, Proc. Natl. Acad. Sci. USA; and elsewhere. Two viral constructs were utilized to characterize inhibition of viral infectivity (FIG. 4). Construct APV23 (FL-J6/JFH) is a full-length, chimeric, genotype 2a HCV genome containing the HCV core through the NS2 first transmembrane domain coding region from the J6 HCV isolate linked to the second NS2 transmembrane domain NS3 through NS5B coding region of HCV strain JFH-1, as shown in FIG. 4 (i.e. an HCV chimera with the “C3 Junction” described in Pietschmann, T. et al. (2006) Proc. Natl. Acad. Sci. USA 103(19): 7408-13; see page 7409 and FIG. 2A of Pietschmann, T. et al.). Construct APV112 was generated by replacing nucleotides encoding amino acids 53 to 218 of the NS4B gene of the APV23 sequence with a corresponding sequence from a genotype 1b (Con1 strain).
# (§2) Huh7.5 cells were plated at a density of 20,000 cells per well in 96-well plates. The cells were exposed to the chimeric HCV virions at a multiplicity of infection of 0.01. Potential inhibitory compounds were added simultaneously with the chimeric virus. Cells were incubated for 48 hours and then the levels of HCV 3′NTR and GAPDH RNA were quantified by realtime quantitative PCR. Data were analyzed by the comparative Ct method with delta-delta Ct determined relative to 1.0% DMSO. Results in FIGS. 5 and 6 are depicted as log change in 3′NTR copies relative to 1.0% DMSO.
# [3] = test system: chimeric APV112 HCV (genotype 2a with genotype 1b NS4B amino acids 53 to 218); experiment: HCV APV112 viral infectivity assay in Huh7.5 cells, 3′NTR RNA by realtime quantitative PCR; assay type: cell-based, hepatitis C virus; details: for Log change in 3′NTR copies relative to 1.0% DMSO (GAPDH normalized): APV112, 48 hours
# Experimental: as §1, §2
structure (smiles),measurement,setting,value
"O=C(NCc1cccs1)c1nn2c(c1Cl)NC(c1ccco1)CC2C(F)(F)F (stereo not drawn) [Compound 89652, 3-chloro-5-(furan-2-yl)-N-(thiophen-2-ylmethyl)-7-(trifluoromethyl)-4,5,6,7-tetrahydropyrazolo[L5-a]pyrimidine-2-carboxamide]",CC50,[1],> 100 µM
same,chimeric APV23 viral infectivity,[2],unaffected
same,potency in viral infectivity assays relative to HCV replicon assays,[3],significantly more potent
same,Log change in 3′NTR copies relative to 1.0% DMSO (GAPDH normalized),[3]; 0.02 μM,−0.15
same,Log change in 3′NTR copies relative to 1.0% DMSO (GAPDH normalized),[3]; 0.07 μM,−0.52
same,Log change in 3′NTR copies relative to 1.0% DMSO (GAPDH normalized),[3]; 0.22 μM,−0.85
same,Log change in 3′NTR copies relative to 1.0% DMSO (GAPDH normalized),[3]; 0.67 μM,−1.31
same,Log change in 3′NTR copies relative to 1.0% DMSO (GAPDH normalized),[3]; 2 μM,−1.47
same,chimeric APV112 viral infectivity,"[3]; FIG. 5, sensitive genotype 1b NS4B region",reduced
